One data set has as its target DnaK (Escherichia coli, UniProt P0A6Y8). Nature of the data set: biochemical. How it is done:
(§1) RNAse T1 contains a Ser-Pro sequence with a cis conformation at the sequence site 38/39. […] In detail, the protein is unfolded by suitable additives and the renaturation rate is measured and registered after removal of the additives, e.g. by rapid dilution. As is shown (Scholz et al., Biol. chem. 1998, March; 379(3): 361-5), the exchange of the prolin 39 with an alanine (P39A) leads to a protein mutant whose foldback rate is […] influenced by this peptide bond. Added APIase, dependent on concentration, catalyses the isomerisation of this non-prolyl peptide bond and, thus, the foldback of the P39A mutant.
(§2) […] RNAse T1 P39A was incubated with 5 M guanidinium-Cl and 0.1 M Tris-HCl at pH 8 at 15° C. for 60 min. The foldback at 15° C. was started by a 40-fold dilution of the unfolded protein in foldback buffer (0.1 Tris-HCl, 50 mM KCl, 11 mM MgCl2) at pH 8. The foldback was determined as increase of the protein fluorescence at 320 nm (10 nm width of band) with excitation of 278 nm (1.5 nm width of band) with a Jobin-Yvon-Spex Fluoromax-2 fluorescence spectrometer.

The nature of data set [1]: Stopped-flow spectroscopic test of catalysis of the cis/trans isomerisation of Ala-Leu (APIase activity). The class given is biochemical.
Description: The peptide bond of the substrate Ala-Leu is to about 99% in the trans conformation at pH 7.4. […] The isomerisation rate can be measured when the substrate is subjected to a pH modification that has an influence on the cis/trans equilibrium of the substrate and when the rate of the pH modification is higher than the isomerisation rate of the substrate. In this context, the isomerisation rate corresponds to the sum of the individual rates cis to trans and trans to cis of the two conformation isomers of the substrate. In the present example, a so-called Stopped-Flow device from the company Applied Photophysics Ltd. (England) is used. This spectroscopic device makes a rapid mixture of two components and, subsequently, a collection of spectroscopic data, which is rapid and time-independent, possible. Moreover, an accompanying software makes it possible for the rate constants (kobs) to be calculated while assuming a concentration/time law that corresponds to a so-called “first-order time law”. For the detection of the catalysis, the following assay was selected: • Stock solution Ala-Leu (Bachem, Switzerland) 10 mM dissolved in Aqua dest. with pH 2.0, adjusted by means of HCl • Buffer solution: 12.5 mM Tris, 50 mM KCl, 11 mM MgCl2 with HCl adjusted to pH 8.8 DnaK (SIGMA-ALDRICH CHEMIE GmbH, Germany), or produced in a molecular biological way
After mixing the components in the Stopped-Flow device, the reaction solution had the following concentrations: 1.66 mM Ala-Leu, 10.4 mM Tris, 41.6 mM KCl, 9.2 mM MgCl2. The pH was 7.6. All the solutions were kept constant at a temperature of 25° C.
The thickness of the coating of the silica cuvets was 2 mm, the measuring wave length was 220 nm.
The following solutions were used: • Buffer solution: 12.5 mM Tris, 50 mM KCl, 11 mM MgCl2. • Substrate solution: 20 mM Ala-Leu, dissolved in Aqua dest. at pH 2.0. • DnaK stock solution: 20 μM in buffer solution a
The pH of the solution in the cuvet was 7.3 each. The error lines indicated result from three independent measurements for the determination of the rate constant kobs with a DnaK concentration.
In order to establish whether Cyp18 catalyses the cis/trans isomerisation of the dipeptide Ala-Leu, the isomerisation rate was analysed in the presence of up to 8.4 μM Cyp18: • Human Cyp18 was either bought (SIGMA-ALDRICH CHEMIE GmbH, Germany) or produced as recombinant enzyme (E. coli cultures). The cyclophilin concentration of the cyclophilin stock solution of 1.14 mM was determined by means of titration against the cyclophilin inhibitor cyclosporin A (SIGMA-ALDRICH CHEMIE GmbH, Germany). The substrate Ala-Leu (BACHEM, Switzerland) used was produced as 10 mM stock solution in water with a pH of 2.0. The buffer solution used contained a mixture of the following chemicals: 12 mM Tris, 50 mM KCl, 11 mM MgCI2 and was adjusted with HCl to a pH of 8.8. The measurement of the isomerisation rate of the substrate took place with the Stopped-Flow-Photometer (Applied Photophysics Ltd., England) at 25°C. with 228 nm using 1 cm quartz cuvets. By adding the substrate to the mixture of buffer and Cyp18, solutions were produced in the cuvet with Cyp18 concentrations of 0, 208, 416, 625, 833 and 8,330 nM and 1.66 mM Ala-Leu each with a pH of 7.9.
Data set [2] is described as follows: 2D 1H NMR exchange (NOESY) measurement of cis/trans isomerisation in the pentapeptide. The class given is biochemical. The following applies: for relative intensity of the cross signal of the peptide bond Ala-Tyr / relative intensity of the cross signal of the peptide bond Tyr-Ala: 25 mM pentapeptide, pH 7.1, 278° K; for relative intensity of the cross signal of the peptide bond Ala-Tyr: no addition 3.50 ± 0.51; for relative intensity of the cross signal of the peptide bond Tyr-Ala: no addition 3.89 ± 0.32. An excerpt:
A further possibility, only described in 1998, is the determination of the cis/trans isomerisation rate of secondary amide peptide bonds containing aromatic amino acids by means of 2D 1H NMR exchange experiments (Scherer G. et al., 1998, JACS 120:5568-5574). In Example 8, this NMR method is used to determine a catalytic acceleration of the cis/trans isomerisation of the peptide bonds Ala-Tyr and Tyr-Ala within the pentapeptide Ala-Ala-Tyr-Ala-Ala. The acceleration is accomplished by catalytic amounts of DnaK.
NMR Device: Bruker DRX-500, Equipped with z-gradient
• FIG. 8: The alanine methyl region from the two-dimensional exchange 1H-NMR spectrum of 25 mM Ala-Ala-Tyr-Ala-Ala in 25 mM Tris, 11 mM MgCl2, 50 mM KCl, 9:1H2O:D2O, pH 7.1 at 278° K. The mixing time of the phase-sensitive NOESY was 330 ms. Each FID had 184 scans. The amount of data from t1×t2=512×8192 points covered a spectral range of 5501 Hz×5482 Hz. The correction of the base line was carried out by adjustment with a polynom of fifth order in the F2 dimension. […] The experiment was carried out under identical conditions as described above. In addition, 20 μM DnaK was contained in the measuring solution.
In a further analysis of the method of the two-dimensional NOESY experiment illustrated in Example 8, the cross signals can be quantified by means of common mathematical techniques.

The subject of a further data set is RNAse T1 P39A. Put plainly: Foldback of RNAse T1 P39A catalysed by APIase. The format is biochemical. The settings on record: 1 μM DnaK, 15° C., pH 8; without APIase 6.67×10^−4. How it is done: as §1, §2
The conditions of data set [3]: DnaK 250 and 1,000 nM, 10° C., pH 7.8.
Protocol: The details of Example 5 are described as follows: • Measuring device: Spectrophotometer Diodenarray HP8452A (Hewlett Packard, USA) • Substrate: Suc-Ala-Phe-Pro-Phe-NHNp (SEQ ID NO:2) (BACHEM, Switzerland) • Protease: Chymotrypsin (Merck, Germany) • Measure temperature: 10° C. • Buffer: 35 mM Hepes, pH 7.8 • Protease solution for use: 5 mg protease per ml buffer • Substrate solution for use: 35 mg substrate dissolved in 1 ml DMSO • DnaK solution for use: 30 μM in buffer • Cuvet: 1 ml quartz cuvet, thickness of layer 1 cm • Measuring wave length: 390 nm
Process: After attemperating a mixture of substrate, DnaK and buffer, the reaction is started by rapid addition and homogenous distribution of the protease solution for use. In this way, a chymotrypsin concentration of 0.83 mg/ml is achieved in the cuvet. By means of the substrate amount contained in the cuvet, a final extinction of about 0.43 is accomplished after complete turnover of the substrate. The concentrations of DnaK contained in the cuvet were 0.250 and 1,000 nM.
The target of a further data set is T1, APIase activity of DnaK (Escherichia coli, UniProt P0A6Y8).
T1 construct: purchased SIGMA-ALDRICH CHEMIE GmbH, Germany
T1 sequence (P0A6Y8 whole entry): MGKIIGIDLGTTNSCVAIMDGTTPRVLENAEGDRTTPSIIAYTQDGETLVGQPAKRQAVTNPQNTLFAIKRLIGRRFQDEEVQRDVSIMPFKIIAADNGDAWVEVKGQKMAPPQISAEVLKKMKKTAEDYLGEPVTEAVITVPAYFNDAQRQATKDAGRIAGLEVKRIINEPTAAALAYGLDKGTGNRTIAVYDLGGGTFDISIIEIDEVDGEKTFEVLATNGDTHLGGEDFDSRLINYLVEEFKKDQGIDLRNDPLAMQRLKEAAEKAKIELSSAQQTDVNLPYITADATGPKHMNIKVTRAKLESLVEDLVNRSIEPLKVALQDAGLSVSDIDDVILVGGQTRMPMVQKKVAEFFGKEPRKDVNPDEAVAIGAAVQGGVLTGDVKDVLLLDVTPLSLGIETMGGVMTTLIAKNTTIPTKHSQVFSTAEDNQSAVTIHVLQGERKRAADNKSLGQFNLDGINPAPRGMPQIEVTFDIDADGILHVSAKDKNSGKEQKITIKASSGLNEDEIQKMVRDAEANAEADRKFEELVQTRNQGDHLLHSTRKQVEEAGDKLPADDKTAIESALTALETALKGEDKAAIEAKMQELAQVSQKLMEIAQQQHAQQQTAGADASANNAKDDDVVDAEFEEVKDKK
Nature of the data set: Inhibition of the APIase activity of DnaK in the spectrophotometric Ala-Leu activity test. The format is biochemical. The method, then:
The peptide bond of the substrate Ala-Leu is to about 99% in the trans conformation at pH 7.4. An increase of the proton concentration of the aqueous Ala-Leu solution to about 100 mM results in a shift of the equilibrium of the conformations to a higher content of the peptide with the cis conformation. […] The isomerisation rate can be measured when the substrate is subjected to a pH modification that has an influence on the cis/trans equilibrium of the substrate and when the rate of the pH modification is higher than the isomerisation rate of the substrate. In this context, the isomerisation rate corresponds to the sum of the individual rates cis to trans and trans to cis of the two conformation isomers of the substrate. In the present example, a so-called Stopped-Flow device from the company Applied Photophysics Ltd. (England) is used. This spectroscopic device makes a rapid mixture of two components and, subsequently, a collection of spectroscopic data, which is rapid and […], possible. Moreover, an accompanying software makes it possible for the rate constants (kobs) to be calculated while assuming a concentration/time law that corresponds to a so-called “first-order time law”. […]

This note sets out measurements from patent publication US7589065B2, “Catalysis of the cis/trans-isomerisation of secondary amide peptide compounds” (Max-Planck Gesellschaft zur Forderung der Wissenschaften, …, priority 2001, dated 2009).

As usually defined, the IC50 is the point on the concentration scale where inhibition reaches its midpoint. A lower IC50 goes with greater potency.

Chain of DnaK (P0A6Y8 whole entry): as above

As to `CCCCCCCC/C=C\CCCCCCCC(=O)NC(CC(C)C)C(=O)NCCc1ccccc1` (stereo not shown) [30/B4], half-maximal inhibition on DnaK (IC50) was put at 7.5 µM.

`CCCCCCCCCCCC(=O)NC(CC(=O)O)C(=O)O` (stereo not shown) [28/B7]: the IC50 against DnaK was 177 µM.

“DnaK: protein with APIase activity, bought from SIGMA-ALDRICH or produced in a molecular biological way”: the “rate constant (kobs) of the cis/trans isomerisation of Ala-Leu” value in data set [1] (624 nM DnaK, 1.66 mM Ala-Leu, pH 7.6, 25° C., non-catalysed reaction 0.36 s^−1) worked out at 0.55 s⁻¹. For the same compound, in data set [1] (624 nM DnaK, without DnaK about 20 seconds), the “time until the conformation equilibrium occurs” value is “less than 10 seconds”. Also, in data set [2] (20 μM DnaK), the “change of the relative intensity of the Ala-Tyr cross signal (in words)” value is on record as “nearly doubles” and the “influence on the cis/trans isomerisation rate of the Tyr-Ala peptide bond (in words)” value is reported as “no influence”. Besides, in data set [2] (20 μM addition), the “relative intensity of the cross signal of the peptide bond Ala-Tyr” value stood at 6.37 ± 0.57 and the “relative intensity of the cross signal of the peptide bond Tyr-Ala” value was found to be 3.39 ± 0.45. Besides, in the data set on RNAse T1 P39A, the “rate constant of the foldback of RNAse T1 P39A” value is on record as 9.77×10^−4 -s. Also, the “influence on the peptidyl-prolyl cis/trans isomerisation rate of the substrate (in words)” value in data set [3] is on record as “did not show a visible influence on the cis/trans isomerisation rate of the substrate”.

Regarding “Cyp18: human peptidyl-prolyl cis/trans isomerase of the cyclophilin family, EC 5.2.1.8, P05092”, in data set [1] (Cyp18 0 to 8,330 nM, independent of concentration, 1.66 mM Ala-Leu, pH 7.9, 25° C., 228 nm), the “rate constants kobs of the isomerisation of Ala-Leu” value is listed as “about 0.43±0.03 s^−1”. Further, the “acceleration of the cis to trans reaction of Ala-Leu (in words)” value in data set [1] (up to 8.4 μM Cyp18, observation period 20 seconds) was “no acceleration of the cis to trans reaction could be observed”.

On to `CSCC[C@H](NC(=O)[C@H](CC(C)C)NC(=O)CNC(=O)[C@H](Cc1ccccc1)NC(=O)[C@H](Cc1ccccc1)NC(=O)[C@H](CCC(N)=O)NC(=O)[C@H](CCC(N)=O)NC(=O)[C@@H]1CCCN1C(=O)[C@H](CCCCN)NC(=O)[C@@H]1CCCN1C(=O)[C@@H](N)CCCN=C(N)N)C(N)=O` [substance P], for which half-maximal inhibition at APIase activity of DnaK (IC50) was put at 76 ± 16 µM.

At DnaK, `CCCCCCCCCCCC(=O)NC(Cc1c[nH]c2ccccc12)C(=O)O` (stereo not shown) [28/C8] gave an IC50 of 55.3 µM.

With “bovine serum albumin: purified reference protein (SIGMA-ALDRICH)”, the “catalysis of the cis/trans isomerisation of the dipeptide Ala-Leu (in words)” value in data set [1] (1 μM purified protein instead of Cyp18) is on record as “not able to catalyse the cis/trans isomerisation of the dipeptide”.

In the case of `CCCCCCCCCCCCCCCC(=O)NCc1ccc(C(=O)NCC2CCC(C(=O)O)CC2)cc1` (stereo not shown) [37/B11], on DnaK, it took 5.9 µM to reach half-maximal inhibition (IC50).

As for “FKBP12: peptidyl-prolyl cis/trans isomerase from SIGMA-ALDRICH”, in data set [2] (20 μM addition), the “catalysis of the cis/trans isomerisation of the Ala-Tyr and Tyr-Ala peptide bonds (in words)” value is given as “neither catalyse”; the “relative intensity of the cross signal of the peptide bond Ala-Tyr” value is given as 3.94 ± 0.87; the “relative intensity of the cross signal of the peptide bond Tyr-Ala” value came out at 2.68 ± 0.75.
